Reference: article PMC12845078 (Pharmaceuticals, 2025)
Marks after values point to notes of the source that are not given here.

Experiments:
[1] = Pharmacokinetics of MT and CBD in rats after pre-administration of ABT; conditions: both groups after ABT co-administration, all sampling time points; below lower limit of quantification
Procedure: Twelve SD rats were randomly divided into two groups. Both groups were first given an intragastric administration of 1-aminobenzotriazole (ABT) at a dose of 200 mg/kg. […] The administration volume for all groups was 5 mL/kg. […] Approximately 50 μL of venous blood were collected into heparin sodium anticoagulant tubes and placed on ice. The sample processing and storage methods were the same as described previously.
Subsequently, the resultant mixture was vortexed for 1 minute and centrifuged at 4 °C for 10 min at 18,800× g. […] The lowest limit of quantification (LLOQ) was established at 2 ng/mL.
Kromasil 100-5-C8 (2.1 × 50 mm) was selected for the separation of samples. The mobile phase consisted of solvent A (water with 0.1% formic acid and 5 mM ammonium acetate) and solvent B (methanol with 0.1% formic acid). […] The column temperature was set at 40 °C. The two eluents were 0.1% formic acid and 5 mM ammonium acetate in water (A) and 0.1% formic acid in methanol (B). […] The main mass spectrometry detection parameters were: dry gas 10 L/min, heated gas 10 L/min, collision gas 270 kPa, ion source temperature 300 °C, desolvation temperature 250 °C, and heating module temperature 400 °C.
Pharmacokinetic parameters: GraphPad Prism 10.1 software was utilized to draw the curves. Noncompartmental analysis was selected to calculate the major PK parameters, including clearance (CL), volume (V), half-life (t1/2), peak concentration (Cmax), and area under the curve (AUC), using WinNonlin 8.1.

[2] = Pharmacokinetics of MT, 6-HMT and CBD in SD rats (i.v. and oral); conditions: rats
Procedure: The drugs were dissolved in the same manner as described previously, with an administration volume of 5 mL/kg for all groups. Blood samples were collected at the time points of pre-administration and 0.033 (only for the intravenous administration group), 0.083, 0.25, 0.5, 0.75, 1, 1.5, 2, 4, 6, 8, and 12 h post-administration.
(§1) The column temperature was set at 40 °C.

[3] = Pharmacokinetics of MT, 6-HMT and CBD in beagles after oral administration; conditions: beagles, p.o.
Procedure: Twelve male healthy adult beagles (weighing 10 ± 2 kg) were randomly divided into two groups. […] The drugs were dissolved in a physiological saline solution containing 5% castor oil, with an administration volume of 2 mL/kg. Blood samples were collected at the time points of pre-administration and 0.083, 0.25, 0.5, 0.75, 1, 1.5, 2, 4, 6, 8, and 12 h post-administration.
as §1

COc1cc2c(CCNC(C)=O)c[nH]c2cc1O [6-HMT, 6-Hydroxymelatonin]
plasma concentration [1]: < 2 ng/mL
AUC(0–t) ([2]; i.v., MT + CBD (1 + 1) mg/kg): 33.63 (5.10) h × ng/mL
MRT(0–t) ([2]; i.v., MT + CBD (1 + 1) mg/kg): 0.38 (0.06) h
t1/2 ([2]; i.v., MT + CBD (1 + 1) mg/kg): 0.28 (0.04) h
AUC(0–1h) ([2]; p.o., MT + CBD (5 + 5) mg/kg): 77.02 (26.81) h × ng/mL
AUC(0–t) ([2]; p.o., MT + CBD (5 + 5) mg/kg): 110.2 (39.21) h × ng/mL
Cmax ([2]; p.o., MT + CBD (5 + 5) mg/kg): 125.1 (33.41) ng/mL
MRT(0–t) ([2]; p.o., MT + CBD (5 + 5) mg/kg): 0.88 (0.11) h
Tmax ([2]; p.o., MT + CBD (5 + 5) mg/kg): 0.33 (0.13) h
t1/2 ([2]; p.o., MT + CBD (5 + 5) mg/kg): 1.72 (1.48) h
AUC(0–1h) ([2]; p.o., MT + CBD (5 + 20) mg/kg): 48.98 (8.27) ** h × ng/mL
AUC(0–t) ([2]; p.o., MT + CBD (5 + 20) mg/kg): 123.2 (15.77) h × ng/mL
Cmax ([2]; p.o., MT + CBD (5 + 20) mg/kg): 64.17 (10.40) ** ng/mL
MRT(0–t) ([2]; p.o., MT + CBD (5 + 20) mg/kg): 2.37 (0.38) ** h
Tmax ([2]; p.o., MT + CBD (5 + 20) mg/kg): 0.33 (0.20) h
t1/2 ([2]; p.o., MT + CBD (5 + 20) mg/kg): 3.41 (1.90) h
AUC(0–1h) ([2]; p.o., MT + Vehicle 5 mg/kg): 90.04 (26.46) h × ng/mL
AUC(0–t) ([2]; p.o., MT + Vehicle 5 mg/kg): 125.2 (21.64) h × ng/mL
Cmax ([2]; p.o., MT + Vehicle 5 mg/kg): 145.6 (40.82) ng/mL
MRT(0–t) ([2]; p.o., MT + Vehicle 5 mg/kg): 1.41 (0.59) h
Tmax ([2]; p.o., MT + Vehicle 5 mg/kg): 0.25 (0) h
t1/2 ([2]; p.o., MT + Vehicle 5 mg/kg): 1.56 (0.90) h
AUC(0–t) ([3]; MT + CBD (3 + 3) mg/kg): 192.4 (72.83) h × ng/mL
AUC(0–∞) ([3]; MT + CBD (3 + 3) mg/kg): 245.7 (69.0) h × ng/mL
Cmax ([3]; MT + CBD (3 + 3) mg/kg): 62.9 (18.18) ng/mL
MRT(0–t) ([3]; MT + CBD (3 + 3) mg/kg): 2.94 (0.83) h
Tmax ([3]; MT + CBD (3 + 3) mg/kg): 0.58 (0.20) h
t1/2 ([3]; MT + CBD (3 + 3) mg/kg): 4.11 (1.69) h
ratio of AUC(0–t),6-HMT to AUC(0–t),MT with CBD, as percent of MT alone ([3]; MT + CBD (3 + 3) mg/kg vs MT 3 mg/kg): 26%
AUC(0–t) ([3]; MT + Vehicle 3 mg/kg): 179.7 (36.31) h × ng/mL
AUC(0–∞) ([3]; MT + Vehicle 3 mg/kg): 202.1 (46.02) h × ng/mL
Cmax ([3]; MT + Vehicle 3 mg/kg): 74.80 (10.94) ng/mL
MRT(0–t) ([3]; MT + Vehicle 3 mg/kg): 3.60 (0.81) h
Tmax ([3]; MT + Vehicle 3 mg/kg): 0.29 (0.10) h
t1/2 ([3]; MT + Vehicle 3 mg/kg): 3.33 (1.11) h
